In patent publication US9271503B2, “Control of insect pests” (priority 2011, dated 2016):

Tested on: B. tabaci b-biotype adults and nymphs
Experiment: Field trial on silverleaf whitefly against conventional insecticide (Example 21)
Type: in vivo, Bemisia tabaci
Details: formulations 2.0 L/ha, Diafenthiuron 0.80 L/ha
Protocol: The trial was conducted in an irrigated conventional cotton crops in a cotton farm. […] Each replicated plot measured 24 m wide 100 m long.
Foliar applications of each treatment were made over two weeks. Pre-treatment counts were made visually of B. tabaci adults and nymphs, on the under-surface of leaves of cotton plants in each treatment. […] Data of both adults and nymphs were expressed as numbers per leaf for each treatment.
Treatment and sample dates were the independent variables.

With CC(C)c1cc(Oc2ccccc2)cc(C(C)C)c1NC(=S)NC(C)(C)C [Diafenthiuron] the “Bemisia tabaci adults per leaf, 3 DAT” value was 15.33 ± 1.45 a per leaf, the “Bemisia tabaci adults per leaf, 7 DAT” value was 20.33 ± 2.40 ab per leaf and the “Bemisia tabaci adults per leaf, 14 DAT” value was 12.00 ± 0.88 a per leaf. For the same compound, the “Bemisia tabaci nymphs per leaf, 3 DAT” value was 28.67 ± 7.22 b per leaf, the “Bemisia tabaci nymphs per leaf, 7 DAT” value was 15.33 ± 2.40 a per leaf and the “Bemisia tabaci nymphs per leaf, 14 DAT” value was 17.00 ± 1.73 b per leaf. For the same compound, the “Bemisia tabaci adults, 3 DAT (% mortality)” value (relative to the control) was “(54.7%)”, the “Bemisia tabaci adults, 7 DAT (% mortality)” value (relative to the control) was “(32.2%)” and the “Bemisia tabaci adults, 14 DAT (% mortality)” value (relative to the control) was “(34.5%)”. The “Bemisia tabaci nymphs, 7 DAT (% mortality)” value (relative to the control) was “(22.1%)”, the “Bemisia tabaci nymphs, 14 DAT (% mortality)” value (relative to the control) was “(60.6%)” and the “Bemisia tabaci adults, 3 DAT (% mortality)” value (relative to the control, listed as conventional insecticide) was 38.7%.
